According to PMC9972884 (Biochemistry, 2009):
Like-named read-outs stand apart in the source and are kept apart here.

Legend:
[1] = target: T1, GST-hPPARα (recombinant human PPARα) (Homo sapiens, UniProt Q07869); assay: Radioligand competition scintillation proximity binding assay, PPARα
T1 sequence (Q07869 1-468): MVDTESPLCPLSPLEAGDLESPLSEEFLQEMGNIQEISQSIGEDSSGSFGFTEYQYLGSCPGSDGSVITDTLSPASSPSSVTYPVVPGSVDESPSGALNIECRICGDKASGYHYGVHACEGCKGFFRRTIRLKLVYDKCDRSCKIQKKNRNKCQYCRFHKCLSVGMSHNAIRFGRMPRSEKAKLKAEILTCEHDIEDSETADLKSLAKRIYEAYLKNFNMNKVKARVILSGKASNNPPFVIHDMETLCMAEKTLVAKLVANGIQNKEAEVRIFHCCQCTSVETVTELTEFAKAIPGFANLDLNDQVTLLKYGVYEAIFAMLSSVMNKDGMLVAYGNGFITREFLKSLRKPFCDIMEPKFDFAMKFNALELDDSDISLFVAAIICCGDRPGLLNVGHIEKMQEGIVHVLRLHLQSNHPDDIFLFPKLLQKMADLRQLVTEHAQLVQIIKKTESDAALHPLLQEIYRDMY

PPARγ = target: T2, PPARγ (Homo sapiens, UniProt P37231); assay type: cell-based; conditions: for effect on induction by rosiglitazone (coincubation): 0–5 µM NO2-LA isomer with fixed 0.1 µM rosiglitazone; for mean induction as a percentage of induction by 0.1 µM rosiglitazone (100%): ligands at 5 µM, mean of 6–18 determinations ± SEM; for agonist (full or partial): relative to rosiglitazone, defined as full agonist; for PPARγ activation (in words): concentrations as high as 100 µM
T2 sequence (P37231 1-477 isoform P37231-2): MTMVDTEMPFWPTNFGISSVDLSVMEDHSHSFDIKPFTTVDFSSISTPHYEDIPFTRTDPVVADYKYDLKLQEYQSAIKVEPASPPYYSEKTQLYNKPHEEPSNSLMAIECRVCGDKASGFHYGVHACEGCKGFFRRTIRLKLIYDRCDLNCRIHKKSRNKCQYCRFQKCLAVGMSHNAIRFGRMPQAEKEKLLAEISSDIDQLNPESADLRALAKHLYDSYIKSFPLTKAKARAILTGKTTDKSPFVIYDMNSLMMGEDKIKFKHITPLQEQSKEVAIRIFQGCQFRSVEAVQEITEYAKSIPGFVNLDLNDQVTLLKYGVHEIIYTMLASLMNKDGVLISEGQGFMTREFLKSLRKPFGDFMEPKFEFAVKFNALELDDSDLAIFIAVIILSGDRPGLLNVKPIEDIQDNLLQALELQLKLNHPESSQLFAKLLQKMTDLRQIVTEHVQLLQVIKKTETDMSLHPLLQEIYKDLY

[2] = target: T3, GST-hPPARγ (recombinant human PPARγ) (Homo sapiens, UniProt P37231); assay: Radioligand competition scintillation proximity binding assay, PPARγ
T3 sequence (P37231 1-505): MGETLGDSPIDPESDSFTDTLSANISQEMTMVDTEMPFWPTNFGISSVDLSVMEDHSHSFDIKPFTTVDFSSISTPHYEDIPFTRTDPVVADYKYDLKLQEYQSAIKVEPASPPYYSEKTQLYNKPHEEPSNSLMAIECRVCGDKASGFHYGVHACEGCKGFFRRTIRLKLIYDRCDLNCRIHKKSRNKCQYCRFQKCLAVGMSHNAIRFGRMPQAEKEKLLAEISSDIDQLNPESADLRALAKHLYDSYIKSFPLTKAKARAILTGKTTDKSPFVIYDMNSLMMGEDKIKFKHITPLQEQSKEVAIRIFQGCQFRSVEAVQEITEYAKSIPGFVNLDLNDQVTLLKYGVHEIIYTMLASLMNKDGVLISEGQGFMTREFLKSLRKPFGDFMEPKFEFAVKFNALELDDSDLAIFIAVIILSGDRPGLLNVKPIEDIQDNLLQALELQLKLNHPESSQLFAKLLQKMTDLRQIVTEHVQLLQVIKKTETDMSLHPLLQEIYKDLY

Row | Compound | apparent affinity for PPARα (in words) [1] | effect on induction by rosiglitazone (coincubation) (PPARγ) | mean induction as a percentage of induction by 0.1 µM rosiglitazone (100%) (PPARγ) [%] | agonist (full or partial) (PPARγ) | agonist (full or partial) (PPARγ; listed as 12-NO2) | agonist (full or partial) (PPARγ; listed as 12-NO2-LA) | IC50 [2] [µM] | IC50 [1] [µM] | EC50 fold higher than for 12-NO2-LA (PPARγ) | maximum level of PPARγ activation as % of that of the 12-NO2 isomer (PPARγ) | agonist (full or partial) (PPARγ; listed as 13-NO2-LA) | binding affinity for PPARγ (in words) [2] | PPARγ activation (in words) (PPARγ) | PPARγ activation (in words) (PPARγ; listed as Linoleic acid)
1 | CCCCC/C=C(\C/C=C\CCCCCCCC(=O)O)[N+](=O)[O-] [12-NO2-linoleic acid, (9Z,12E)-12-nitrooctadeca-9,12-dienoic acid] | very low | less pronounced | 76 ± 9 | partial | nearly full agonist activity | partial agonists | – | – | – | – | – | – | – | –
2 | CCCCC/C(=C\C/C=C\CCCCCCCC(=O)O)[N+](=O)[O-] [13-NO2-linoleic acid, (9Z,12E)-13-nitrooctadeca-9,12-dienoic acid] | – | significantly reduced the level of induction by rosiglitazone | 41 ± 5 | partial | – | – | 0.44 | > 15 | more than 10 fold | ~ 50% | partial agonists | – | – | –
3 | CCCCC/C=C\C/C=C\CCCCCCCC(=O)O [linoleic acid, (9Z,12Z)-octadeca-9,12-dienoic acid, reference compound] | – | – | – | – | – | – | 10.7 | > 15 | – | – | – | very low affinity | negligible PPARγ activation | does not support activation
